Results as given in PubChem BioAssay (NCI).
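Grown in 96-well plates, cells were treated for 48 hours with each compound at five concentrations. Insufficient inhibition: endpoint recorded as highest concentration tested. GI50: concentration for 50% inhibition of growth. TGI marks complete inhibition of growth.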

Experiments:
Assay in all cases: NCI tumour cell line growth inhibition, 48 h
NCI-H226 lung = system: NCI-H226 lung
NCI-H460 lung = system: NCI-H460 lung
NCI-H23 lung = system: NCI-H23 lung
IGROV1 ovarian = system: IGROV1 ovarian
SK-MEL-2 melanoma = system: SK-MEL-2 melanoma
A549 NSCLC = system: A549 NSCLC
DU-145 prostate = system: DU-145 prostate
RXF 393 renal = system: RXF 393 renal
SF-539 CNS = system: SF-539 CNS
SK-MEL-5 melanoma = system: SK-MEL-5 melanoma
MOLT-4 leukemia = system: MOLT-4 leukemia
SF-295 CNS = system: SF-295 CNS
786-0 renal = system: 786-0 renal
NCI-H522 lung = system: NCI-H522 lung
A498 renal = system: A498 renal
UACC-257 melanoma = system: UACC-257 melanoma
ACHN renal = system: ACHN renal
HT29 colon = system: HT29 colon
SW-620 colon = system: SW-620 colon
OVCAR-4 ovarian = system: OVCAR-4 ovarian
TK-10 renal = system: TK-10 renal
SNB-75 CNS = system: SNB-75 CNS
SN12C renal = system: SN12C renal
PC-3 prostate = system: PC-3 prostate
NCI/ADR-RES ovarian = system: NCI/ADR-RES ovarian
HOP-92 NSCLC = system: HOP-92 NSCLC
MDA-MB-435 = system: MDA-MB-435
SR leukemia = system: SR leukemia
SNB-19 CNS = system: SNB-19 CNS
SK-OV-3 ovarian = system: SK-OV-3 ovarian
K-562 leukemia = system: K-562 leukemia
UO-31 renal = system: UO-31 renal
T-47D breast = system: T-47D breast
HOP-62 NSCLC = system: HOP-62 NSCLC
COLO 205 colon = system: COLO 205 colon
UACC-62 melanoma = system: UACC-62 melanoma
CCRF-CEM leukemia = system: CCRF-CEM leukemia
CAKI-1 renal = system: CAKI-1 renal
OVCAR-5 ovarian = system: OVCAR-5 ovarian
OVCAR-3 ovarian = system: OVCAR-3 ovarian
HCC-2998 colon = system: HCC-2998 colon
SK-MEL-28 melanoma = system: SK-MEL-28 melanoma
BT-549 breast = system: BT-549 breast
KM12 colon = system: KM12 colon
M14 melanoma = system: M14 melanoma
MALME-3M melanoma = system: MALME-3M melanoma
MCF7 breast = system: MCF7 breast
MDA-MB-468 breast = system: MDA-MB-468 breast
MDA-MB-231 breast = system: MDA-MB-231 breast
HCT-116 colon = system: HCT-116 colon
EKVX NSCLC = system: EKVX NSCLC
HCT-15 colon = system: HCT-15 colon
HL-60(TB) leukemia = system: HL-60(TB) leukemia
HS 578T breast = system: HS 578T breast
LOX IMVI melanoma = system: LOX IMVI melanoma

`[2H]C([2H])([2H])Oc1ccc2ncc(C#Cc3cncc(C(=O)Nc4ccc(CN5CCN(C)CC5)c(C(F)(F)F)c4)c3)n2n1` gave a GI50 (NCI-H226 lung) of 0.124 µM, a TGI (NCI-H226 lung) of 2.59 µM and a GI50 (NCI-H460 lung) of 0.239 µM. It also gave a TGI (NCI-H460 lung) of 1.81 µM, a GI50 (NCI-H23 lung) of 0.35 µM and a TGI (NCI-H23 lung) of 1.63 µM. For the same compound, the GI50 (IGROV1 ovarian) was 0.581 µM, the TGI (IGROV1 ovarian) was 2.04 µM and the GI50 (SK-MEL-2 melanoma) was 1.09 µM. It also gave a TGI (SK-MEL-2 melanoma) of 6.34 µM, a GI50 (A549 NSCLC) of 0.742 µM and a TGI (A549 NSCLC) of 2.37 µM. It also gave a GI50 (DU-145 prostate) of 0.93 µM, a TGI (DU-145 prostate) of 2.15 µM and a GI50 (RXF 393 renal) of 1.15 µM. For the same compound, the TGI (RXF 393 renal) was 2.5 µM, the GI50 (SF-539 CNS) was 0.112 µM and the TGI (SF-539 CNS) was 1.06 µM. For the same compound, the GI50 (SK-MEL-5 melanoma) was 2.27 µM, the TGI (SK-MEL-5 melanoma) was 6.89 µM and the GI50 (MOLT-4 leukemia) was 0.0668 µM. The TGI (MOLT-4 leukemia) was 2.02 µM, the GI50 (SF-295 CNS) was 0.839 µM and the TGI (SF-295 CNS) was 7.23 µM. It also gave a GI50 (786-0 renal) of 1.37 µM, a TGI (786-0 renal) of 2.66 µM and a GI50 (NCI-H522 lung) of 1.14 µM. The TGI (NCI-H522 lung) was 7.23 µM, the GI50 (A498 renal) was 8.64 µM and the TGI (A498 renal) was 27.8 µM. For the same compound, the GI50 (UACC-257 melanoma) was 0.995 µM, the TGI (UACC-257 melanoma) was 3.73 µM and the GI50 (ACHN renal) was 0.574 µM. For the same compound, the TGI (ACHN renal) was 11.2 µM, the GI50 (HT29 colon) was 0.303 µM and the TGI (HT29 colon) was 1.41 µM. For the same compound, the GI50 (SW-620 colon) was 0.167 µM, the TGI (SW-620 colon) was 1.18 µM and the GI50 (OVCAR-4 ovarian) was 1 µM. For the same compound, the TGI (OVCAR-4 ovarian) was 2.63 µM, the GI50 (TK-10 renal) was 3.17 µM and the TGI (TK-10 renal) was 7.63 µM. It also gave a GI50 (SNB-75 CNS) of 1.92 µM, a TGI (SNB-75 CNS) of 6.09 µM and a GI50 (SN12C renal) of 0.498 µM. For the same compound, the TGI (SN12C renal) was 1.81 µM, the GI50 (PC-3 prostate) was 0.94 µM and the TGI (PC-3 prostate) was 2.35 µM. For the same compound, the GI50 (NCI/ADR-RES ovarian) was 1.18 µM, the TGI (NCI/ADR-RES ovarian) was 2.65 µM and the GI50 (HOP-92 NSCLC) was 0.173 µM. It also gave a TGI (HOP-92 NSCLC) of 0.833 µM, a GI50 (MDA-MB-435) of 0.321 µM and a TGI (MDA-MB-435) of 1.77 µM. The GI50 (SR leukemia) was 0.0606 µM, the TGI (SR leukemia) was 94.2 µM and the GI50 (SNB-19 CNS) was 1.39 µM. The TGI (SNB-19 CNS) was 2.64 µM, the GI50 (SK-OV-3 ovarian) was 4.03 µM and the TGI (SK-OV-3 ovarian) was 18.6 µM. For the same compound, the GI50 (K-562 leukemia) was 0.00942 µM, the TGI (K-562 leukemia) was 94.2 µM and the GI50 (UO-31 renal) was 1.03 µM. For the same compound, the TGI (UO-31 renal) was 2.22 µM, the GI50 (T-47D breast) was 12.1 µM and the TGI (T-47D breast) was 57.3 µM. The GI50 (HOP-62 NSCLC) was 0.656 µM, the TGI (HOP-62 NSCLC) was 4.54 µM and the GI50 (COLO 205 colon) was 0.238 µM. The TGI (COLO 205 colon) was 0.719 µM, the GI50 (UACC-62 melanoma) was 5.27 µM and the TGI (UACC-62 melanoma) was 21 µM. For the same compound, the GI50 (CCRF-CEM leukemia) was 0.043 µM, the TGI (CCRF-CEM leukemia) was 3.74 µM and the GI50 (CAKI-1 renal) was 0.619 µM. For the same compound, the TGI (CAKI-1 renal) was 4.54 µM, the GI50 (OVCAR-5 ovarian) was 0.507 µM and the TGI (OVCAR-5 ovarian) was 1.8 µM. It also gave a GI50 (OVCAR-3 ovarian) of 1.6 µM, a TGI (OVCAR-3 ovarian) of 5.83 µM and a GI50 (HCC-2998 colon) of 1.03 µM. For the same compound, the TGI (HCC-2998 colon) was 2.7 µM, the GI50 (SK-MEL-28 melanoma) was 1.16 µM and the TGI (SK-MEL-28 melanoma) was 2.41 µM. It also gave a GI50 (BT-549 breast) of 0.833 µM, a TGI (BT-549 breast) of 10.4 µM and a GI50 (KM12 colon) of 0.00942 µM. For the same compound, the TGI (KM12 colon) was 1.35 µM, the GI50 (M14 melanoma) was 0.377 µM and the TGI (M14 melanoma) was 1.62 µM. It also gave a GI50 (MALME-3M melanoma) of 0.291 µM, a TGI (MALME-3M melanoma) of 1.49 µM and a GI50 (MCF7 breast) of 0.0503 µM. For the same compound, the TGI (MCF7 breast) was 1.46 µM, the GI50 (MDA-MB-468 breast) was 1.2 µM and the TGI (MDA-MB-468 breast) was 2.95 µM. The GI50 (MDA-MB-231 breast) was 0.278 µM, the TGI (MDA-MB-231 breast) was 1.53 µM and the GI50 (HCT-116 colon) was 0.0677 µM. The TGI (HCT-116 colon) was 1.24 µM, the GI50 (EKVX NSCLC) was 0.606 µM and the TGI (EKVX NSCLC) was 2.22 µM. It also gave a GI50 (HCT-15 colon) of 0.387 µM, a TGI (HCT-15 colon) of 1.64 µM and a GI50 (HL-60(TB) leukemia) of 0.101 µM. It also gave a TGI (HL-60(TB) leukemia) of 1.99 µM, a GI50 (HS 578T breast) of 0.444 µM and a TGI (HS 578T breast) of 6.36 µM. The GI50 (LOX IMVI melanoma) was 0.446 µM and the TGI (LOX IMVI melanoma) was 1.8 µM.
